Laboratory results as given in paper PMC6630837 (Pharmaceuticals, 2019).
Entries after “also recorded” stand apart in the source; their conditions may differ.

What was measured:
[1] = LogD7.4 determination (octan-1-ol/phosphate buffer, LC-MS); format: physicochemical; details: octan-1-ol/phosphate buffer, pH 7.4, octan-1-ol/phosphate buffer pH 7.4, 25 °C; read-out: Log D7.4 (partition coefficient at pH 7.4)
Experimental: LogD7.4 determination. The in-silico prediction tool ALOGPS [4] was used to estimate the octanol-water partition coefficients (log P) of the compounds. […] For each category, two different ratios (volume of octan-1-ol to volume of buffer) were defined as experimental parameters (Table 2).
Equal amounts of phosphate buffer (0.1 M, pH 7.4) and octan-1-ol were mixed and shaken vigorously for 5 min to saturate the phases. The mixture was left until separation of the two phases, and the buffer was retrieved. Stock solutions of the test compounds were diluted with buffer to a concentration of 1 μM. For each compound, three determinations per octan-1-ol:buffer ratio were performed in different wells of a 96-well plate. The respective volumes of buffer-containing analyte (1 μM) were pipetted to the wells and covered by saturated octan-1-ol according to the chosen volume ratio. […] The aqueous phase was transferred to a 96-well plate for analysis by liquid chromatography-mass spectrometry (LCMS, see below).
Results are presented as the mean ± SD of three independent experiments.
LC-MS measurements. […] The system was controlled with the Agilent MassHunter Workstation Data Acquisition software (version B.01.04). The column used was an AtlantisR T3 C18 column (2.1 × 50 mm) with a 3 μm-particle size (Waters Corp., Milford, MA, USA). The mobile phase consisted of eluent A: 10 mM ammonium acetate, pH 5.0 in 95:5, H2O:MeCN; and eluent B: MeCN containing 0.1% formic acid. The flow rate was maintained at 0.6 mL/min. […] MS parameters such as fragmentor voltage, collision energy, and polarity were optimized individually for each drug, and the molecular ion was followed for each compound in the multiple reaction monitoring mode. The concentrations of the analytes were quantified by the Agilent Mass Hunter Quantitative Analysis software (version B.01.04).

[2] = tested on: SH-SY5Y human neuroblastoma cells; test: Neuroprotection against H2O2-induced toxicity, MTT cell viability assay; format: cell-based; details: 50 μM compound, 100 μM H2O2, 24 h, 37 °C
From the text: Neuroprotective activity assays against H2O2-induced toxicity. On the basis of previously described protocols, the flavones and analogues herein synthesized were screened for their neuroprotective effects against H2O2-induced oxidative stress and neuronal damage in SH-SY5Y human neuroblastoma cells by means of a thiazolyl blue tetrazolium bromide (MTT) reduction-based cell viability assay.
(§1) Neuroprotective assays in human neuroblastoma (SH-SY5Y) cells. […] Differences were considered significant when P < 0.05.

[3] = tested on: SH-SY5Y neuroblastoma cells; test: Cytotoxic activity of compounds alone, MTT cell viability assay; details: 50 μM compound alone, 24 h, 37 °C, 0.5% DMSO, SH-SY5Y
Experimental: Neuroprotective assays in human neuroblastoma (SH-SY5Y) cells. SH-SY5Y cells were grown in Dulbecco’s Modified Eagle Medium (DMEM, Gibco, Life Technologies) supplemented with 10% fetal bovine serum (FBS, Biochrom GmbH) and 1% Penicillin-Streptomycin (Gibco, Life Technologies) in a humidified incubator at 37 °C, 5% CO2. For the neuroprotective activity assay, undifferentiated SGSY-5Y cells were plated onto 96-well flat-bottomed microtiter plates at a density of 1 × 10^4 cells/well in DMEM supplemented with 2% FBS and preincubated for 24 h at 37 °C, 5% CO2. Compounds (stored as 10 mM solutions in DMSO at −20 °C) were then added to achieve a final concentration of 50 μM and, after 30 min, cells were incubated in the presence or absence of 20 μM Aβ protein fragment 1-42 (Sigma-Aldrich, dissolved in DMSO and stored in 2 mM aliquots at −20 °C) or 100 μM of H2O2 (Sigma-Aldrich, dissolved to 10 mM in 0.9% NaCl aqueous solution immediately prior to the assay) overnight at 37 °C, 5% CO2. […] The following morning, 20 μL of a 5 mg/mL solution of 3-(4,5-dimethylthiazol-2-yl)-2,5-diphenyltetrazolium bromide (MTT, Sigma-Aldrich) in PBS (Gibco, Life Technologies) was added to each well and the plates were further incubated for 4 h at 37 °C, followed by the addition of DMSO (200 μL) to each well in order to dissolve the resulting formazan crystals. After 2 h incubating at 37 °C, the optical density (OD) at 540 nm (with a 620 nm reference filter) was measured in an Amersham Biosciences Biotrak II Plate Reader. The percentage of MTT reduction was determined according to Equation (1). […] Differences between experimental conditions were compared for statistical significance by one-way ANOVA followed by a Tukey’s post-test, an analysis carried out using GraphPad Prism Software (LA Jolla, CA, USA). Differences were considered significant when P < 0.05. In order to exclude direct MTT reduction, compounds were also tested in (a) the absence of cells and (b) in the absence of both cells and culture medium, using the same experimental conditions described above. (2) MTT Reduction (% of Control)=[ODsample−ODmedium/ODcell control−ODmedium] × 100 […]
Tabl e S2. Cytotoxic activity of each compound assessed in SH-SY5Y neuroblastoma cells via an MTT cell viability assay.a Comp ound Nr. MTT reduction (% control) p-va l u e vs . untreated cell control (unpai red t-t es t) […]
a Cells were incubated for 24 h at 37 °C, in the presence (50 μM) or absence of each compound.

[4] = target: acetylcholinesterase (AChE) (Electrophorus electricus, UniProt O42275); test: Acetylcholinesterase inhibition, Ellman's colorimetric assay; format: biochemical; details: 100 µM compound; for inhibition at 100 µM: read-out: AChE inhibitory efficacy (percentage of inhibition)
Experimental: For cholinesterase inhibition tests (acetylcholinesterase (AChE, electrophorus
was kept within 1.25% cuvette concentration.
AChE and at 18.2 µM concentration for BuChE. […]

[5] = target: T1, butyrylcholinesterase (BuChE) (Equus caballus, UniProt P81908); test: biochemical; details: for inhibition at 100 µM: read-out: BuChE inhibitory efficacy (percentage of inhibition)
T1 construct: (BuChE, equine serum); from tissue; host or cells: equine serum
Experimental: Experimental procedures for cholinesterase inhibition a s sa y s. For cholinesterase inhibition tests (acetylcholinesterase (AChE, electrophorus
el ec t r ic u s) a n d b ut yr ylcholinesterase (BuChE, equine serum), the Ellman’s cholorimetric assay1 was followed, with minor modifications. DMSO
was kept within 1.25% cuvette concentration. The chromogenic agent DTNB [5,5’-dithiobis(2-nitrobenzoic acid)] was fixed at 0.975 mM
con centration; 0. 1 M phosphate buffer (pH 8. 0) was employed, T = 25 °C, and the reaction was monitored for 125 s. […]
of inhibition, the substrate concentration (acetylthiocholine iodide for AChE; S- butyr ylthiocholine iodide for BuChE) was fixed at 29 µM for
AChE and at 18.2 µM concentration for BuChE.
Lineweaver-Burk plot (or double reciprocal plot, 1/V vs . 1/ [S ]) wa s u se d for estimating both, the mode of inhibition and the inhibition constants […]
Competitive inhibition (inhibitor only bonds the free enzyme):
KKiiii = [II ]KKMM iiaaaa
M i xe d inhibition (inhibitor binds both, the free and the complexed enzyme) :
Uncompetitive (the inhibitors only binds the complexed enzyme):
N on -competitive (inhibitor binds both the free enzyme and the complexed enzyme with equal affinity) :
Table S3. […]
of the synthesized flavone analogues at 100 µ M.
C omp ou n d N o. AChE B uChE

[6] = tested on: SH-SY5Y human neuroblastoma cells; test: Neuroprotection against Aβ1-42-induced toxicity, MTT cell viability assay; format: cell-based; details: 50 μM compound, 20 μM Aβ1-42, 24 h, 37 °C
Experimental: Neuroprotective activity assays against Aβ1-42-induced toxicity. From all compounds tested in the above presented assay, the pair 8 and 19 presented the strongest neuroprotective potential, with convincing proof on the importance of the aglycone for the desired neuroprotective effects against H2O2-induced cell injury. […] Here, the MTT assay was used once again to assess cell viability of SH-SY5Y cells treated with 20 μM of Aβ1-42, in the presence of 50 μM of each compound. Similar protocols have been used to screen candidates for AD therapy. Moreover, based on the existing evidence that in situ spontaneous fibrillization of Aβ1-42 in the incubation mixture is important in the triggering of neurotoxic effects, we added the Aβ1-42 peptide fragment dissolved in DMSO to the culture medium prior to incubation, together with each compound in study. […] Even though there is published evidence that undifferentiated SH-SY5Y cells are not as sensitive to Aβ1-42-induced neurite degeneration and apoptosis as differentiated ones, with 20 μM of Aβ1-42 we were able to observe a significant decrease in cellular MTT reduction capacity, corresponding to roughly half of the cell viability rates observed in the non-treated control.
as §1

[7] = format: in vitro ADME; details: PAMPA, pH 7.4, 16 h
Experimental: Parallel artificial membrane permeability assay (PAMPA). Effective permeability (log Pe) was determined in a 96-well format with PAMPA [34]. For each compound, measurements were performed at pH 7.4 in quadruplicates. Four wells of a deep well-plate were filled with 650 μL of PRISMA HT universal buffer, adjusted to pH 7.4 by adding the requested amount of NaOH (0.5 M). Samples (150 μL) were withdrawn from each well to determine the blank spectra by UV/Vis-spectroscopy (190 to 500 nm, SpectraMax 190, Molecular Devices, Silicon Valley, CA, USA). Then the analyte, dissolved in DMSO (10 mM), was added to the remaining buffer to yield 50 μM solutions. To exclude precipitation, the optical density (OD) was measured at 650 nm, and solutions exceeding OD 0.01 were filtrated. Afterwards, samples (150 μL) were withdrawn to determine the reference spectra. […] The filter membranes at the bottom of the acceptor plate were infused with 5 μL of GIT-0 Lipid Solution and 200 μL of Acceptor Sink Buffer were filled into each acceptor well. The sandwich was assembled, placed in the GutBox^TM, and left undisturbed for 16 h. Then, it was disassembled and samples (150 μL) were transferred from each donor and acceptor well to UV-plates for determination of the UV/Vis spectra.

Sequence of acetylcholinesterase (AChE) (O42275 24-633): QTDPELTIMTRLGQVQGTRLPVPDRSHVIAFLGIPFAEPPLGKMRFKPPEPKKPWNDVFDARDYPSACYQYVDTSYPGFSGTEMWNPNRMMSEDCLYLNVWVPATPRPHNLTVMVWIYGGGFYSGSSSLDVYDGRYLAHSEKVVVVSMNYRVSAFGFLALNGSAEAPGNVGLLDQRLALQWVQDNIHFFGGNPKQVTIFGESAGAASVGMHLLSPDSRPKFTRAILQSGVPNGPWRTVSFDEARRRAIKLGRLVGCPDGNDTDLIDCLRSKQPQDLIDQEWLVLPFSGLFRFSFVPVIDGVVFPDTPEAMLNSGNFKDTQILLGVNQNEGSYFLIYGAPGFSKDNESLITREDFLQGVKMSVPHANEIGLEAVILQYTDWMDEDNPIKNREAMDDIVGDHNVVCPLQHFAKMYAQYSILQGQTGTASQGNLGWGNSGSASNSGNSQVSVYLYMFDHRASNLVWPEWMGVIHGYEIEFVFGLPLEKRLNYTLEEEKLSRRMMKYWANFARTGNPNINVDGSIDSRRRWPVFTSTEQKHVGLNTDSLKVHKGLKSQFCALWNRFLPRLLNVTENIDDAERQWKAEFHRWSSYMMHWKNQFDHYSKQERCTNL
T1 sequence (P81908 whole entry): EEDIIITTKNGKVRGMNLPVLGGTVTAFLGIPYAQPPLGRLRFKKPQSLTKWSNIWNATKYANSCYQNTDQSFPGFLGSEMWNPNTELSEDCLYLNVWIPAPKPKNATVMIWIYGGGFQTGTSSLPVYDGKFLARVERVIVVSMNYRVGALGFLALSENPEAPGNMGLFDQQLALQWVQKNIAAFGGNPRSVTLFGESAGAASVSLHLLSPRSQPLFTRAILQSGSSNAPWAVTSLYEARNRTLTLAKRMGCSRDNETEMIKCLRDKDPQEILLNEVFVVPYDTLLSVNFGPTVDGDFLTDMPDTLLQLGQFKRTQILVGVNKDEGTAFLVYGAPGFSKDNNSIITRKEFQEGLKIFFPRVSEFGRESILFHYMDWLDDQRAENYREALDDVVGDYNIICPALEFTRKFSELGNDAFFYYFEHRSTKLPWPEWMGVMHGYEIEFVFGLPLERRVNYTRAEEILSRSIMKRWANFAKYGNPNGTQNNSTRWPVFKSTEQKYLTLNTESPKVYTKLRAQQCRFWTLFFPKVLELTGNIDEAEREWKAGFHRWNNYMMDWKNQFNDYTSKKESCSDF

Structure (SMILES)	logD [1]	Neuroprotective effect against H2O2-induced toxicity (MTT cell viability) [2]	MTT reduction (% control) [3]	AChE inhibitory efficacy (percentage of inhibition) [4]	inhibition at 100 µM [5]	Neuroprotective effect against Aβ1-42-induced toxicity (MTT cell viability) [6]	Log Pe (effective permeability) [7]	inhibition at 100 µM [4]	BuChE inhibitory efficacy (percentage of inhibition) ([5]; 100 µM compound)
O=c1ccoc2c([C@@H]3O[C@H](CO)[C@@H](O)[C@H](O)[C@H]3O)c(O)cc(O)c12 [Compound 22, 8-(β-D-Glucopyranosyl)-5,7-dihydroxy-4H-chromen-4-one]	-2 ± 0.2	no significant differences	149.2 ± 21.6%	n.i .	19%	–	–	–	–
O=c1cc(-c2ccc(N3CCOCC3)cc2)oc2cc(O)cc(O)c12 [Compound 8, 5,7-Dihydroxy-4′-(morpholin-4-yl)flavone]	> 2.5	able to produce statistically significant differences when compared to H2O2 controls	57.6 ± 25.5%	–	–	displayed relevant neuroprotective effects against Aβ1-42	–	–	–
O=c1cc(-c2ccc(F)cc2)oc2c([C@@H]3O[C@H](CO)[C@@H](O)[C@H](O)[C@H]3O)c(O)cc(O)c12 [Compound 18, 4′-Fluoro-8-(β-D-glucopyranosyl)-5,7-dihydroxyflavone]	-0.2 ± 0.1	–	136.7 ±12.9%	–	–	–	no detectable permeability; also recorded: Below detection limit	–	–
O=c1cc(C2CC2)oc2cc(O)cc(O)c12 [Compound 4, 2-Cyclopropyl-5,7-dihydroxy-4H-chromen-4-one]	2.9 ± 0.1	the increase was not significant	140.7 ± 12.0%	–	30%	–	–	24%	–
O=c1cc(-c2ccccc2)oc2c([C@@H]3O[C@H](CO)[C@@H](O)[C@H](O)[C@H]3O)c(O)cc(O)c12 [Compound 16, 8-(β-D-Glucopyranosyl)-5,7-dihydroxyflavone]	0.8 ± 0.3	absence of significant effects	142.0 ± 38.5%	–	–	–	–	20%	n.i .
O=c1cc(-c2ccc(F)cc2)oc2cc(O)cc(O)c12 [Compound 7, 4′-Fluoro-5,7-dihydroxyflavone]	> 2.5	–	109.4 ± 11.4%	n.i .	23%	contrarily	–	–	–
